A short description of data set [1]: Permeability of the compound. The data set is classed as ADME. Particulars: not told; read-out: permeability.
A short description of data set [2]: Chromatographic hydrophobicity index, log D of the compound. The class given is physicochemical.
The target of data set [3] is Transient receptor potential cation channel subfamily V member 4 (Homo sapiens, UniProt Q9HBA0). Kind of data set: Antagonist activity at human TRPV4.
Data set [4] deals with Voltage-gated inwardly rectifying potassium channel KCNH2 (Homo sapiens, UniProt Q12809). Kind of data set: Inhibition of human ERG at <= 10 uM.
Data set [5] concerns the target T1, Short transient receptor potential channel 6 (Homo sapiens) (UniProt Q9Y210).
T1 sequence (whole entry): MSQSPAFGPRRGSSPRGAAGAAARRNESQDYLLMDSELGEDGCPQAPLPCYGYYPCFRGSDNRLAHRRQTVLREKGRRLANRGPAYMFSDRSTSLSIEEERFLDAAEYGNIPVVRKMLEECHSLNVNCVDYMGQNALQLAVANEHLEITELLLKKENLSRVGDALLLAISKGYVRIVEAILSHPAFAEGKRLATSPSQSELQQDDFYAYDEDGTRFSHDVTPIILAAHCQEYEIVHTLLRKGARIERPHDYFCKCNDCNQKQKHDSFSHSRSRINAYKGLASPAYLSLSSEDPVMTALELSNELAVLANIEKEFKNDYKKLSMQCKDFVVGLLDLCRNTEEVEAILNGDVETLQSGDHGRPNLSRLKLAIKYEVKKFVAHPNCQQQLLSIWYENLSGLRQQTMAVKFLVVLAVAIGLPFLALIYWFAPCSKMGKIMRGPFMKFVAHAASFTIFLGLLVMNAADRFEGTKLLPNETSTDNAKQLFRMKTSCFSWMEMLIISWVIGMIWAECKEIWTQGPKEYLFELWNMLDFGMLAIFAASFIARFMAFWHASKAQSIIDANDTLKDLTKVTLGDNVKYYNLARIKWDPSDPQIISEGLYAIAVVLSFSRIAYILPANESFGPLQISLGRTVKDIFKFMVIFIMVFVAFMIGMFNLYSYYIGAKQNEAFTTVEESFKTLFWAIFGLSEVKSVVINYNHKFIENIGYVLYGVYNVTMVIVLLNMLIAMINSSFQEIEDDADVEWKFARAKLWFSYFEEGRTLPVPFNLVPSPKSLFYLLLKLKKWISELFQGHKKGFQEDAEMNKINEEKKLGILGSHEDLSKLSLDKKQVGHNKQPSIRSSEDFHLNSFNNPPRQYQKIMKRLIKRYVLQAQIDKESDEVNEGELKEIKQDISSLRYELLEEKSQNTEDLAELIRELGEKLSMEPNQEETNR
Kind of data set: Antagonist activity at human TRPC6 at <= 30 uM. Particulars: dose microM <=30.

Data set [6] concerns the target T2, Short transient receptor potential channel 5 (Homo sapiens) (UniProt Q9UL62).
T2 sequence (whole entry): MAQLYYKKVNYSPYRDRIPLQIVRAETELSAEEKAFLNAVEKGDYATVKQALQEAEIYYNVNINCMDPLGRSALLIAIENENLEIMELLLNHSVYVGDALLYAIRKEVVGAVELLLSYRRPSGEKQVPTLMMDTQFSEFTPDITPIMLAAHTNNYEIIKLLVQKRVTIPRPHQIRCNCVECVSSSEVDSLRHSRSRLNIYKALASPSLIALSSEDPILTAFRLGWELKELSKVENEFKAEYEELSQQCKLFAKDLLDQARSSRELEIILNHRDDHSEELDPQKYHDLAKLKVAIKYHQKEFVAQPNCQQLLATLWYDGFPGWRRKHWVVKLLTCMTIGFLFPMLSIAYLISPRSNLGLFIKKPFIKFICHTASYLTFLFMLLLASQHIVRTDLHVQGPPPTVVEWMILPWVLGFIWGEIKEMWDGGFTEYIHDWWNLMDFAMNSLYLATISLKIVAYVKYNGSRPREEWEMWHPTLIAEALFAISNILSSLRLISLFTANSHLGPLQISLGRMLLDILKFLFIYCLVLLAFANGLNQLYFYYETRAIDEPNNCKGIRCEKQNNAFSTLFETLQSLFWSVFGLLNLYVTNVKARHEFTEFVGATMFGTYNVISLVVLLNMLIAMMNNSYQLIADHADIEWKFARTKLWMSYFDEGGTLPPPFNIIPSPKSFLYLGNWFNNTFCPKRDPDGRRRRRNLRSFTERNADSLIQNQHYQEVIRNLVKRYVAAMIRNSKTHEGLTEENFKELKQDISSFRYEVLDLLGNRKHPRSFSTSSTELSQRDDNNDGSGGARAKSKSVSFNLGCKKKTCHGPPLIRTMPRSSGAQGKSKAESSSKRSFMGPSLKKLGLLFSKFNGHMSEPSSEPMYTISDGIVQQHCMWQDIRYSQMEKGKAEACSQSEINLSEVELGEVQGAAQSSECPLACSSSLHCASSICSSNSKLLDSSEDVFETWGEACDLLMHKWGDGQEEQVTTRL
As to the kind of experiment: Antagonist activity at human TRPC5 at <= 30 uM. Particulars: dose microM <=30.

The target of data set [7] is T3, Short transient receptor potential channel 3 (Homo sapiens) (UniProt Q13507).
T3 sequence (whole entry): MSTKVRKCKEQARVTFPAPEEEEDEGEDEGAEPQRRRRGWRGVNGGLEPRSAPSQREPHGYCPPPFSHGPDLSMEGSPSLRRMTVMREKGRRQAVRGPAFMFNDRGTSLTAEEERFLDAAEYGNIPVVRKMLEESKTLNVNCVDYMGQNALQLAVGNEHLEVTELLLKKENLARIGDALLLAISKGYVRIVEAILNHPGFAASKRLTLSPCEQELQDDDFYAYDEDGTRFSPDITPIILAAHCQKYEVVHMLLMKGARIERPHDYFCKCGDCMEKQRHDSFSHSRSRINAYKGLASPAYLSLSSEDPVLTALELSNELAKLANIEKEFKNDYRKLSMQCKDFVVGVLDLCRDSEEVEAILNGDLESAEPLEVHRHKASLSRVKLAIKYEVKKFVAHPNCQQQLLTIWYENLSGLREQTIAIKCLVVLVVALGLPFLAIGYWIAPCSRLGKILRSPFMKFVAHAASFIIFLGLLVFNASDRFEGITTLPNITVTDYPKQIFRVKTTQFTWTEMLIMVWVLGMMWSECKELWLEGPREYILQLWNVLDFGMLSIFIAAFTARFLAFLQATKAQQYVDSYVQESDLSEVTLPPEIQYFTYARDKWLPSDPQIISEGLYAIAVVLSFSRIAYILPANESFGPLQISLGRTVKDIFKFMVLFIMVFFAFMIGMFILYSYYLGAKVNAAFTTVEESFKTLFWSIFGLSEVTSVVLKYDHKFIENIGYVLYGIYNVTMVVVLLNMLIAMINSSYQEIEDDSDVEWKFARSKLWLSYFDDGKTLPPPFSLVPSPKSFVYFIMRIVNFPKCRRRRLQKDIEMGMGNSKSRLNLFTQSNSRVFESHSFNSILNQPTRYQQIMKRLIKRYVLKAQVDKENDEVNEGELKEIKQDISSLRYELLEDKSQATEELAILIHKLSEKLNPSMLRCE
Kind of data set: Antagonist activity at human TRPC3 at <= 30 uM. Particulars: dose microM <=30.

The target in data set [8] is Transient receptor potential cation channel subfamily M member 4 (Homo sapiens) (UniProt Q8TD43). As to the kind of experiment: Antagonist activity at human TRPM4 at <= 30 uM. The following applies: dose microM <=30.
Data set [9] concerns the target T4, Short transient receptor potential channel 4 (Homo sapiens) (UniProt Q9UBN4).
T4 sequence (whole entry): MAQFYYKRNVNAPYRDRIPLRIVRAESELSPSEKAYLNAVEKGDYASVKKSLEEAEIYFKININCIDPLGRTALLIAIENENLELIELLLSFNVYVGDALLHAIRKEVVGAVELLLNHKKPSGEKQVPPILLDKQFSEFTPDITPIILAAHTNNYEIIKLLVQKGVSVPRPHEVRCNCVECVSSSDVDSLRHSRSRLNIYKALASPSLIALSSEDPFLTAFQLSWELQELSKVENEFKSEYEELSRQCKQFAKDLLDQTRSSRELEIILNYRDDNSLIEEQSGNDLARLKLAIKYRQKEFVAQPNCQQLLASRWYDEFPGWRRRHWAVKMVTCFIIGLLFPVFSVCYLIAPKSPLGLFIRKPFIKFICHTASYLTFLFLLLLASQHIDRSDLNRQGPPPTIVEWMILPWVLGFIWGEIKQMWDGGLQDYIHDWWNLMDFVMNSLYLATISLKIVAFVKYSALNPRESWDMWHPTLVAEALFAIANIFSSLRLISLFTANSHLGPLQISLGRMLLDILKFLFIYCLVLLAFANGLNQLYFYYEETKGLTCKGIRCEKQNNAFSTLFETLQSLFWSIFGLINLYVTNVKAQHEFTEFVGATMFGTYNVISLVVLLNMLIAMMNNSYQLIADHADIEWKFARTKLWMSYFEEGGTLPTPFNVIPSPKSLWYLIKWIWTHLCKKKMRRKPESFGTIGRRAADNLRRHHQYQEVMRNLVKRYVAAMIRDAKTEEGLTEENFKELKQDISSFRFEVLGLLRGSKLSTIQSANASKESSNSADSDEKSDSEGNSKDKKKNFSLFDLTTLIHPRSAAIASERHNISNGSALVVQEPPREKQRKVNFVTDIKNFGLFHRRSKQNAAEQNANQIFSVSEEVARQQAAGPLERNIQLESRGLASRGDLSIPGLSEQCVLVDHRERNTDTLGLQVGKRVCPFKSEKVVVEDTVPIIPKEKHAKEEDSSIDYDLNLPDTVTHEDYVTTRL
Kind of data set: Antagonist activity at human TRPC4 at <= 30 uM. Particulars: dose microM <=30.

The target in data set [10] is Transient receptor potential cation channel subfamily V member 1 (Homo sapiens) (UniProt Q8NER1). As to the kind of experiment: Antagonist activity at human TRPV1 at <= 30 uM. The following applies: dose microM <=30.
Data set [11] has as its target Transient receptor potential cation channel subfamily A member 1 (Homo sapiens) (UniProt O75762). Kind of data set: Antagonist activity at human TRPA1 at <= 30 uM. The following applies: dose microM <=30.
For data set [12], the target named is Transient receptor potential cation channel subfamily M member 8 (Homo sapiens) (UniProt Q7Z2W7). As to the kind of experiment: Antagonist activity at human TRPM8 at <= 30 uM. Particulars: dose microM <=30.
Data set [13] addresses Cytochrome P450 3A4 (Homo sapiens, UniProt P08684). Kind of data set: Inhibition of CYP3A4 (unknown origin) at <= 10 uM. The class given is ADME.
Data set [14] deals with Transient receptor potential cation channel subfamily M member 2 (Homo sapiens) (UniProt O94759). As to the kind of experiment: Antagonist activity at human TRPM2 at <= 30 uM. The following applies: dose microM <=30.

The source of these data is ChEMBL document CHEMBL4825762, “Identification, Synthesis, and Characterization of a Major Circulating Human Metabolite of TRPV4 Antagonist GSK2798745” (ACS Med Chem Lett, 2021).

Active and inactive are the calls of the source. The calls are words filed in the database; no cut-off is given here.

Chain of Transient receptor potential cation channel subfamily V member 4 (Q9HBA0 whole entry): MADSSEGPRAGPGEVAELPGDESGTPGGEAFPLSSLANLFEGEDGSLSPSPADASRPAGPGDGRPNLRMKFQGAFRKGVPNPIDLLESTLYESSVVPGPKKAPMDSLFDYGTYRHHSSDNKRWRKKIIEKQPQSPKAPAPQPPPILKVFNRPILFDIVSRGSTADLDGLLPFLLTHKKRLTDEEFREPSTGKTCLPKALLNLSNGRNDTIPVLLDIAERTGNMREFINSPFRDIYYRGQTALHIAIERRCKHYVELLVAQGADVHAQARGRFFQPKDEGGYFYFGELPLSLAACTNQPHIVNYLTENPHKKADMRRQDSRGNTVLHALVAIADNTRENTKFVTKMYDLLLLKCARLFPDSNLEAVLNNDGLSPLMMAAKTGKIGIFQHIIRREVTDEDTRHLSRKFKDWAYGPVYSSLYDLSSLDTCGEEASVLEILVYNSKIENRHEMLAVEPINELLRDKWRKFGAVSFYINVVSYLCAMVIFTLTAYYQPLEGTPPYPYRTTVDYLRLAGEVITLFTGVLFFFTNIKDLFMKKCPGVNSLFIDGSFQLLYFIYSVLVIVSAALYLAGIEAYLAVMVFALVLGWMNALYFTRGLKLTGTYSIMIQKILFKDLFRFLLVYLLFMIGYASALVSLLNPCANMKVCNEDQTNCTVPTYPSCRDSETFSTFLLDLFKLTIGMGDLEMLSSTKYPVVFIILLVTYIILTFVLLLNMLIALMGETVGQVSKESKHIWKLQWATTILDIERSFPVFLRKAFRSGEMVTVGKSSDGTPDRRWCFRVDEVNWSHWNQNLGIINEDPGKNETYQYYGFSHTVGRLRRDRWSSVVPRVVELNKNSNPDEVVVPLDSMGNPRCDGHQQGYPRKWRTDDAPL
Chain of Transient receptor potential cation channel subfamily M member 8 (Homo sapiens) (Q7Z2W7 whole entry, looked up): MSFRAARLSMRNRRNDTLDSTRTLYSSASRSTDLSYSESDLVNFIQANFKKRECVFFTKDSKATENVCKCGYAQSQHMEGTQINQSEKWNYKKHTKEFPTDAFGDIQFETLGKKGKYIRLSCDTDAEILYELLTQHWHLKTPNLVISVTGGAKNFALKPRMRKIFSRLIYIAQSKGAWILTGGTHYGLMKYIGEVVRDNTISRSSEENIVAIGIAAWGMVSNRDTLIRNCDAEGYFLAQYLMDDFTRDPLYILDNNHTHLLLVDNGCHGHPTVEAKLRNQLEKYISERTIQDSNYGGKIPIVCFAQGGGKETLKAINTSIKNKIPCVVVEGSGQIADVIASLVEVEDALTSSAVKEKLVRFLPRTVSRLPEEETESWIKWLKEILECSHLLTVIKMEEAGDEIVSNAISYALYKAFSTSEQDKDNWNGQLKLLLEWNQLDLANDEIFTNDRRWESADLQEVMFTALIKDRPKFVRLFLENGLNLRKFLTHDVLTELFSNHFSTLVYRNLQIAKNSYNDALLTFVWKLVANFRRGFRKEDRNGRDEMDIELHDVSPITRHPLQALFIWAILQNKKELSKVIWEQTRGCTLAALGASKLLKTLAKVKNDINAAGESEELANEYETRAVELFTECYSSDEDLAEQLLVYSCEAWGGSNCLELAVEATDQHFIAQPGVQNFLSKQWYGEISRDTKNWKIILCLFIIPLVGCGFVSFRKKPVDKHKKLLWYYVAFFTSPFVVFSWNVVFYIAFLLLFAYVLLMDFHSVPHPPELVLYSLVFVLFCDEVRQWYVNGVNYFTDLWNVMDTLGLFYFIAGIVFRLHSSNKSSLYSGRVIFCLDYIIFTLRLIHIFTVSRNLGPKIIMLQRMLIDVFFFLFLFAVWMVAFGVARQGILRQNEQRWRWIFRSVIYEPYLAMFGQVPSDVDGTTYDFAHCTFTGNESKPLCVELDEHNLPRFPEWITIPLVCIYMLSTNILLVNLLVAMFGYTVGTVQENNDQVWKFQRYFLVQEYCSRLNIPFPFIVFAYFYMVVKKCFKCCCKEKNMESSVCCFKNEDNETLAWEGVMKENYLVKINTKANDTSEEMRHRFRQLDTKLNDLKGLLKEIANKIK
Chain of Transient receptor potential cation channel subfamily M member 4 (Homo sapiens) (Q8TD43 whole entry): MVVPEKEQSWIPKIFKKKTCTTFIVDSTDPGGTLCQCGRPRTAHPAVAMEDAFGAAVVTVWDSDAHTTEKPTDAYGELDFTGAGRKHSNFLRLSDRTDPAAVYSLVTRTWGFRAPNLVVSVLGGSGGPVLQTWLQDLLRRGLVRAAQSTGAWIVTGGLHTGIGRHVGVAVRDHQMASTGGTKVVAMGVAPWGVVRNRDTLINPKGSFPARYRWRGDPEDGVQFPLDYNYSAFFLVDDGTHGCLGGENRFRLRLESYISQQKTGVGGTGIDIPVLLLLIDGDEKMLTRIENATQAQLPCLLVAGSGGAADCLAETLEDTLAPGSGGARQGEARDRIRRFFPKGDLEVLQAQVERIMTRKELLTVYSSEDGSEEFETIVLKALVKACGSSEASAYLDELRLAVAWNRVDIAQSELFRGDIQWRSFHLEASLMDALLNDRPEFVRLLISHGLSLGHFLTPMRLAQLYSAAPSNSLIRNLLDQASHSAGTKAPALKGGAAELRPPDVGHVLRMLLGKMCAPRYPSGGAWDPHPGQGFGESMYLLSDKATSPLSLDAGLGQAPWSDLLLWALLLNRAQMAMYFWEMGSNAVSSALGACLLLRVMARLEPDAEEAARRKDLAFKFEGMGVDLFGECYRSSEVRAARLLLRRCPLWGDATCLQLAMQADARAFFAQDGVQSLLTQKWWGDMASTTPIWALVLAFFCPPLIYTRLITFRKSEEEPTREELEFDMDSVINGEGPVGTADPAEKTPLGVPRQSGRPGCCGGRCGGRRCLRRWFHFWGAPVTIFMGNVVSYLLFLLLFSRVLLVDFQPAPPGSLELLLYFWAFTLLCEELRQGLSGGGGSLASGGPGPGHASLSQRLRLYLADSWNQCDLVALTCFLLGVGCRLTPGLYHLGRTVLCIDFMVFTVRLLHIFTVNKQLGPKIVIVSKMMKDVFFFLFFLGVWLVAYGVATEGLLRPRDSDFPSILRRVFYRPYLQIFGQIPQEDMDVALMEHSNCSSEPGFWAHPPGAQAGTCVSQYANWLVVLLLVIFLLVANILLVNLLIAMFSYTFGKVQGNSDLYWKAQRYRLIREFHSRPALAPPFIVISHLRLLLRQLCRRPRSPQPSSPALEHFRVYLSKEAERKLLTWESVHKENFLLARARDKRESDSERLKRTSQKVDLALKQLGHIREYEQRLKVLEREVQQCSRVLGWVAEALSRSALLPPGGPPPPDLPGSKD
Chain of Transient receptor potential cation channel subfamily V member 1 (Homo sapiens) (Q8NER1 whole entry): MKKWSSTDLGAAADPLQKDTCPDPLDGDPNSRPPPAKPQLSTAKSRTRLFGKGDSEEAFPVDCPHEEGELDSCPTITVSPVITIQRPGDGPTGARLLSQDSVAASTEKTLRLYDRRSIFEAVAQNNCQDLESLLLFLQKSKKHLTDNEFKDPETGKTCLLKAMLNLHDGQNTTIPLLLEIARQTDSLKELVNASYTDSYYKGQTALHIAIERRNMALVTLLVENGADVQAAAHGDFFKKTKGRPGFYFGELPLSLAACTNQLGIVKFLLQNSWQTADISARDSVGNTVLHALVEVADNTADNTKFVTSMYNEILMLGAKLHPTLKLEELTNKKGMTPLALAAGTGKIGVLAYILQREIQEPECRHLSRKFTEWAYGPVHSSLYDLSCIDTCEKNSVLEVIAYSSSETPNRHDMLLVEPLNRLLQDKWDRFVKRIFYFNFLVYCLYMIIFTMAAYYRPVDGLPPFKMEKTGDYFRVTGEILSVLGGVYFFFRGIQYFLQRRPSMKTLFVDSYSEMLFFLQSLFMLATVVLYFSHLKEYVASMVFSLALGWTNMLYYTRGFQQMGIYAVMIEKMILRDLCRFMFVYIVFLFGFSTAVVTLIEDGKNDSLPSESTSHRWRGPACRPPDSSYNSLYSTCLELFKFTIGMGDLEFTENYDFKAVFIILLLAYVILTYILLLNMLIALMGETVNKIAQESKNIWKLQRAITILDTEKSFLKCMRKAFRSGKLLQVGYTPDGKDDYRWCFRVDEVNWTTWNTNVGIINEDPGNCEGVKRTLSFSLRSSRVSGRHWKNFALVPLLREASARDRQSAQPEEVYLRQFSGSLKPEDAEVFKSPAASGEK
Chain of Cytochrome P450 3A4 (P08684 whole entry): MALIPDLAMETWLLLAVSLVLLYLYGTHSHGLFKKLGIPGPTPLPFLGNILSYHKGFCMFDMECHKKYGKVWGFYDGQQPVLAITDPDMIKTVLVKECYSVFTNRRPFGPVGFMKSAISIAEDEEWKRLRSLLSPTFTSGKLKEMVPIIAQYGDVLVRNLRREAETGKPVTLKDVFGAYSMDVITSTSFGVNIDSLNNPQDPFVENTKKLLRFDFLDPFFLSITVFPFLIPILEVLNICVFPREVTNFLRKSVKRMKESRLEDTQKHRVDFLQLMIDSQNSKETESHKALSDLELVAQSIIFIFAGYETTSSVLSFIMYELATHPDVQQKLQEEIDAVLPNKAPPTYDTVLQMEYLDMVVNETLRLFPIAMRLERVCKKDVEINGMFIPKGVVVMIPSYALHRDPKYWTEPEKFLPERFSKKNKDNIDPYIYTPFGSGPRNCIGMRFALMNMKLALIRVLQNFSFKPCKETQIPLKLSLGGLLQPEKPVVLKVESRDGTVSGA

As to `CC(C)(O)c1cnc(N2C[C@@]3(CCC[C@](C)(Cn4cnc5ccc(C#N)cc54)C3)OC2=O)cn1` [GSK2798745], in data set [1], the Papp was 38.5 ×10⁻⁶ cm/s. The chromatographic logD (commonly lipophilicity estimated from chromatographic retention) in data set [2] came to 4. Half-maximal inhibition in data set [3] (IC50) required 2 nM.

For `CC(C)(O)c1cnc(N2C[C@@]3(CC[C@@H](O)[C@](C)(Cn4cnc5ccc(C#N)cc54)C3)OC2=O)cn1`, the Papp in [1] was determined as 3.2 ×10⁻⁶ cm/s. Further, the “inhibition (INH)” value in data set [4] and in [13] was “Not Active” throughout. For the same compound, the result in [5], in data set [6], in [7], in data set [8], in data set [9] and in data set [10] was inactive. The result in data set [11], in data set [12] and in data set [14] was inactive. This compound also had a chromatographic logD in data set [2] of 2.6. Besides, half-maximal inhibition in [3] (IC50) was put at 56 nM.
